Among the data in patent US7781591B2, “Substituted 3-cyanopyridines as protein kinase inhibitors” (Wyeth LLC, priority 2006, dated 2010) are IC50 values, retold here.

Usually IC50 stands for the concentration that gives 50% inhibition.

T1 sequence (Q04759 whole entry): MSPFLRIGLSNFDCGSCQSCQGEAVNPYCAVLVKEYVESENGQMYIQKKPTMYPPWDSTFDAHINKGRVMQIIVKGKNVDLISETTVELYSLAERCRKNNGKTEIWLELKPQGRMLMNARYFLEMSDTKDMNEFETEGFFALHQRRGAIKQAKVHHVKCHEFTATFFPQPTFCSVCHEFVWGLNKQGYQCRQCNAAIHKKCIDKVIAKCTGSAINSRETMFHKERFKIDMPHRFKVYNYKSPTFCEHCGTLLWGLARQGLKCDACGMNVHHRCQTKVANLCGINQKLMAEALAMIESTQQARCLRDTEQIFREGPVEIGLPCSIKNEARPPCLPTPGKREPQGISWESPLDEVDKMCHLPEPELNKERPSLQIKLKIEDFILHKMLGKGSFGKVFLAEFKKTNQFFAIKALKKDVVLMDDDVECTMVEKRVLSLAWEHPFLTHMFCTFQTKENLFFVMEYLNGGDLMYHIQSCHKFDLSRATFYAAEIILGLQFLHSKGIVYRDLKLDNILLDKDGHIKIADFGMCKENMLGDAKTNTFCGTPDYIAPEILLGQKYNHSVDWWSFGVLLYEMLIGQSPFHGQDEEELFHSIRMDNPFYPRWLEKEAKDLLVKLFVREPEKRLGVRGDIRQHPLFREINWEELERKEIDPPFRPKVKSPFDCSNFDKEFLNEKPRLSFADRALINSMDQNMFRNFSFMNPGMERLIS

The assay concerns the target T1, human PKCθ full length enzyme (Homo sapiens, UniProt Q04759).
T1 construct: human PKCθ full length enzyme (Panvera Cat# P2996); purchased Panvera P2996
The assay can be described thus: PKCθ IMAP assay (fluorescence polarization). It counts as biochemical. The conditions noted are these: human PKCθ full length enzyme, IMAP; average value; read-out: IC50 PKCθ IMAP. A general note: In fluorescence polarisation assays a small probe gives low polarisation when free and higher when bound to something large.
In the case of `COc1ccc(-c2cncc(C#N)c2Nc2cccc3cc[nH]c23)cc1OC` [Compound 544, 5-(3,4-dimethoxyphenyl)-4-(1H-indol-7-ylamino)nicotinonitrile], the IC50 came out at 0.737 µM.

Turning to `Cc1c(Nc2c(C#N)cncc2-c2ccc(OCCNCc3ccccn3)cc2)ccc2[nH]ccc12` [Compound 432, 4-[(4-methyl-1H-indol-5-yl)amino]-5-(4-{2-[(pyridin-2-ylmethyl)amino]ethoxy}phenyl)nicotinonitrile], the IC50 was 0.009 µM.

Turning to `N#Cc1cncc(-c2cccc(-c3cc[nH]c3)c2)c1Nc1ccc2[nH]ccc2c1` [Compound 124, 4-(1H-indol-5-ylamino)-5-[3-(1H-pyrrol-3-yl)phenyl]nicotinonitrile], the IC50 turned out to be 1.1 µM.

On to `Cc1c(Nc2c(C#N)cncc2-c2ccc(OCCN3CCN(CCO)CC3)cc2)ccc2[nH]ccc12` [Compound 427, 5-(4-{2-[4-(2-hydroxyethyl)piperazin-1-yl]ethoxy}phenyl)-4-[(4-methyl-1H-indol-5-yl)amino]nicotinonitrile], for which the concentration for half-maximal inhibition (IC50) came out at 0.014 µM.

Take `Cc1c(Nc2c(C#N)cncc2-c2cccnc2Cl)ccc2[nH]ccc12` [Compound 471, 2′-chloro-4-[(4-methyl-1H-indol-5-yl)amino]-3,3′-bipyridine-5-carbonitrile]: the half-inhibitory concentration (IC50) amounted to 0.156 µM.

Consider `N#Cc1cncc(-c2cc3ccccc3o2)c1Nc1cccc2[nH]ccc12` [Compound 318, 5-(1-benzofuran-2-yl)-4-(1H-indol-4-ylamino)nicotinonitrile], for which the IC50 came out at 0.01 µM.

With `Cc1c(Nc2c(C#N)cncc2-c2ccc(OCCCCCl)cc2)ccc2[nH]ccc12` [Compound 490, 5-[4-(4-chlorobutoxy)phenyl]-4-[(4-methyl-1H-indol-5-yl)amino]nicotinonitrile], the IC50 was 0.051 µM.

In the case of `N#Cc1cccc(-c2cccc(-c3cncc(C#N)c3Nc3ccc4[nH]ccc4c3)c2)c1` [Compound 132, 5-(3′-cyanobiphenyl-3-yl)-4-(1H-indol-5-ylamino)nicotinonitrile], the IC50 came out at 0.11 µM.

As for `COCCOc1ccc(-c2cncc(C#N)c2Nc2cnc3[nH]ccc3c2Cl)cc1OC` [Compound 492, 4-[(4-chloro-1H-pyrrolo[2,3-b]pyridin-5-yl)amino]-5-[3-methoxy-4-(2-methoxyethoxy)phenyl]nicotinonitrile], the IC50 came out at 0.061 µM.

`COCCOc1ccc(-c2cncc(C#N)c2Nc2ccc3[nH]ccc3c2C)cc1OC` [Compound 478, 5-[3-methoxy-4-(2-methoxyethoxy)phenyl]-4-[(4-methyl-1H-indol-5-yl)amino]nicotinonitrile]: the half-inhibitory concentration (IC50) was 0.011 µM.

Turning to `Cc1c(Nc2c(C#N)cncc2-c2ccc(CN3CCC(N4CCCC4)CC3)o2)ccc2[nH]ccc12` [Compound 404, 4-[(4-methyl-1H-indol-5-yl)amino]-5-{5-[(4-pyrrolidin-1-ylpiperidin-1-yl)methyl]-2-furyl}nicotinonitrile], the IC50 stood at 0.004 µM.

On to `CNC(=O)Nc1ccc(-c2cncc(C#N)c2Nc2ccc3[nH]ccc3c2C)cc1` [Compound 567, 1-(4-{5-cyano-4-[(4-methyl-1H-indol-5-yl)amino]pyridin-3-yl}phenyl)-3-methylurea], for which the half-maximal inhibitory concentration (IC50) is 0.021 µM.

As for `N#Cc1cncc(-c2cccc(-c3ccc(C(=O)NC4CCCC4)cc3)c2)c1Nc1cccc2[nH]ccc12` [Compound 148, 3′-[5-cyano-4-(1H-indol-4-ylamino)pyridin-3-yl]-N-cyclopentylbiphenyl-4-carboxamide], the IC50 came to 0.04 µM.

Take `N#Cc1cncc(-c2cccc(Br)c2)c1Nc1ccc2[nH]ccc2c1` [Compound 113, 5-(3-bromophenyl)-4-(1H-indol-5-ylamino)nicotinonitrile]: the IC50 was found to be 0.05 µM.

Take `CN(C)c1ccc(-c2cncc(C#N)c2Nc2cccnc2)cc1` [Compound 291, 5-[4-(dimethylamino)phenyl]-4-(pyridin-3-ylamino)nicotinonitrile]: the IC50 was determined as 4.86 µM.

In the case of `Cc1c(Nc2c(C#N)cncc2-c2cc3cc(CN4CCN(C)CC4)ccc3o2)ccc2[nH]ccc12` [Compound 462, 4-[(4-methyl-1H-indol-5-yl)amino]-5-{5-[(4-methylpiperazin-1-yl)methyl]-1-benzofuran-2-yl}nicotinonitrile], the IC50 came to 0.0002 µM.

For `Cc1c(Nc2c(C#N)cncc2-c2ccc(OCCN3CCN(C)CC3)cc2)ccc2[nH]ccc12` [Compound 350, 4-[(4-methyl-1H-indol-5-yl)amino]-5-{4-[2-(4-methylpiperazin-1-yl)ethoxy]phenyl}nicotinonitrile], the half-inhibitory concentration (IC50) was found to be 0.008 µM.

For `Cc1c(Nc2c(C#N)cncc2-c2cccc(CN(C)C)c2)ccc2[nH]ccc12` [Compound 457, 5-{3-[(dimethylamino)methyl]phenyl}-4-[(4-methyl-1H-indol-5-yl)amino]nicotinonitrile], the IC50 turned out to be 0.007 µM.

For `COc1ccc(-c2cncc(C#N)c2Nc2ccc(C)c3cc[nH]c23)cc1OC` [Compound 530, 5-(3,4-dimethoxyphenyl)-4-[(4-methyl-1H-indol-7-yl)amino]nicotinonitrile], the IC50 was determined as 0.179 µM.

In the case of `COc1cc(-c2cncc(C#N)c2Nc2ccc3[nH]ccc3c2C)ccc1OCCCl` [Compound 372, 5-[4-(2-chloroethoxy)-3-methoxyphenyl]-4-[(4-methyl-1H-indol-5-yl)amino]nicotinonitrile], the concentration for half-maximal inhibition (IC50) was 0.007 µM.

For the compound `CN(C)S(=O)(=O)c1cccc(-c2cncc(C#N)c2Nc2cccc3[nH]ccc23)c1` [Compound 313, 3-[5-cyano-4-(1H-indol-4-ylamino)pyridin-3-yl]-N,N-dimethylbenzenesulfonamide], the IC50 stood at 0.02 µM.

For the compound `COc1ccc(-c2cncc(C#N)c2Nc2cccc3[nH]ccc23)cc1OCCNCCc1c[nH]cn1` [Compound 339, 5-[3-(2-{[2-(1H-imidazol-4-yl)ethyl]amino}ethoxy)-4-methoxyphenyl]-4-(1H-indol-4-ylamino)nicotinonitrile], the IC50 turned out to be 0.01 µM.

Consider `Cc1c(Nc2c(C#N)cncc2-c2ccc(OCCCl)cc2)ccc2[nH]ccc12` [Compound 348, 5-[4-(2-chloroethoxy)phenyl]-4-[(4-methyl-1H-indol-5-yl)amino]nicotinonitrile], for which the half-inhibitory concentration (IC50) turned out to be 0.004 µM.

Take `COc1ccc(-c2cncc(C#N)c2Nc2ccc3[nH]ncc3c2)cc1OC` [Compound 379, 5-(3,4-dimethoxyphenyl)-4-(1H-indazol-5-ylamino)nicotinonitrile]: the 50% inhibitory concentration (IC50) came to 2.53 µM.

On to `N#Cc1cncc(-c2cccc(C(=O)O)c2)c1Nc1cccc2[nH]ccc12` [Compound 327, 3-[5-cyano-4-(1H-indol-4-ylamino)pyridin-3-yl]benzoic acid], for which the IC50 was found to be 0.12 µM.

With `Cc1c(Nc2c(C#N)cncc2-c2ccc(OCCN3CCC(N4CCCC4)CC3)cc2)ccc2[nH]ccc12` [Compound 423, 4-[(4-methyl-1H-indol-5-yl)amino]-5-{4-[2-(4-pyrrolidin-1-ylpiperidin-1-yl)ethoxy]phenyl}nicotinonitrile], the 50% inhibitory concentration (IC50) was 0.011 µM.

With `CN(C)Cc1ccc(-c2cccc(-c3cncc(C#N)c3Nc3cccc4[nH]ccc34)c2)s1` [Compound 315, 5-(3-{5-[(dimethylamino)methyl]-2-thienyl}phenyl)-4-(1H-indol-4-ylamino)nicotinonitrile], the 50% inhibitory concentration (IC50) was 0.01 µM.

In the case of `CCc1c(Nc2c(C#N)cncc2-c2ccc(OC)c(OC)c2)ccc2[nH]ccc12` [Compound 305, 5-(3,4-dimethoxyphenyl)-4-[(4-ethyl-1H-indol-5-yl)amino]nicotinonitrile], the IC50 turned out to be 0.06 µM.

`COc1ccc(-c2cncc(C#N)c2Nc2ccc3[nH]ccc3c2)cc1OCCNCc1ccncc1` [Compound 240, 4-(1H-indol-5-ylamino)-5-(4-methoxy-3-{2-[(pyridin-4-ylmethyl)amino]ethoxy}phenyl)nicotinonitrile]: the IC50 was 0.08 µM.

As for `N#Cc1cncc(-c2cccc(-c3ccc(C(=O)N4CCCC4)cc3)c2)c1Nc1cccc2[nH]ccc12` [Compound 149, 4-(1H-indol-4-ylamino)-5-[4′-(pyrrolidin-1-ylcarbonyl)biphenyl-3-yl]nicotinonitrile], the concentration for half-maximal inhibition (IC50) was determined as 0.07 µM.

As for `COc1cc(Br)c(-c2cncc(C#N)c2Nc2ccc3[nH]ccc3c2C)cc1OC` [Compound 247, 5-(2-bromo-4,5-dimethoxyphenyl)-4-[(4-methyl-1H-indol-5-yl)amino]nicotinonitrile], the IC50 was determined as 0.1 µM.

`Cc1c(Nc2c(C#N)cncc2-c2ccc(NCCN3CCOCC3)nc2)ccc2[nH]ccc12` [Compound 362, 4-[(4-methyl-1H-indol-5-yl)amino]-6′-[(2-morpholin-4-ylethyl)amino]-3,3′bipyridine-5-carbonitrile]: the IC50 was determined as 0.05 µM.

Turning to `COc1ccc(-c2cncc(C#N)c2Nc2ccc3[nH]ccc3c2)cc1OCCNCCc1ccncc1` [Compound 253, 4-(1H-indol-5-ylamino)-5-(4-methoxy-3-{2-[(2-pyridin-4-ylethyl)amino]ethoxy}phenyl)nicotinonitrile], the half-maximal inhibitory concentration (IC50) was 0.05 µM.

Turning to `COc1ncc(-c2cncc(C#N)c2Nc2ccc3[nH]ccc3c2)cn1` [Compound 266, 4-(1H-indol-5-ylamino)-5-(2-methoxypyrimidin-5-yl)nicotinonitrile], the half-maximal inhibitory concentration (IC50) was determined as 1.45 µM.

With `COc1ccc(-c2cncc(C#N)c2Nc2ccc3[nH]ccc3c2)cc1Br` [Compound 188, 5-(3-bromo-4-methoxyphenyl)-4-(1H-indol-5-ylamino)nicotinonitrile], the IC50 stood at 0.01 µM.

As to `COc1ccc(-c2cncc(C#N)c2Nc2cccc3[nH]ccc23)cc1OCCNCCCn1ccnc1` [Compound 365, 5-[3-(2-{[3-(1H-imidazol-1-yl)propyl]amino}ethoxy)-4-methoxyphenyl]-4-(1H-indol-4-ylamino)nicotinonitrile], the IC50 was determined as 0.004 µM.

For the compound `Cc1c(Nc2c(C#N)cncc2-c2ccc(CN3CCN(C)CC3)cc2F)ccc2[nH]ccc12` [Compound 459, 5-{2-fluoro-4-[(4-methylpiperazin-1-yl)methyl]phenyl}-4-[(4-methyl-1H-indol-5-yl)amino]nicotinonitrile], the IC50 amounted to 0.006 µM.

Turning to `Cc1c(Nc2c(C#N)cncc2-c2cc3cc(CN4CCC(N5CCOCC5)CC4)ccc3o2)ccc2[nH]ccc12` [Compound 395, 4-[(4-methyl-1H-indol-5-yl)amino]-5-{5-[(4-morpholin-4-ylpiperidin-1-yl)methyl]-1-benzofuran-2-yl}nicotinonitrile], the half-inhibitory concentration (IC50) came to 0.004 µM.
